In US4089959A, “Long-acting xanthine bronchodilators and antiallergy agents” (priority 1976, dated 1978):

Legend:
[1] = system: histamine-induced bronchoconstriction; assay: BD: bronchodilator activity against histamine-induced bronchoconstriction in the guinea pig; format: in vivo; settings: for potency, in words: 4280 at 20 mpK po vs 4258 at 15 mpK po; for lethal (animals) / dose showing lethal effects: guinea pig; for dose showing lethal effects: po
Experimental: A modification of the method of Siegmund. O. H., et.al., J. Pharmacol. and Exp. Therap. 90:254-9, 1947, is used. […] Times for prostration are recorded.

[2] = system: guinea pig tracheal chain; assay: SP: spasmolytic activity in vitro, guinea pig tracheal chain preparation; format: cell-based; settings: Cavia porcellus; given as fraction of molar, e.g. M/1000; read-out: SP in vitro, C: molar (M) concentration required to produce maximum relaxation
Excerpt: SP: Spasmolytic activity evaluated in vitro using guinea pig tracheal chain preparation, and expressed as the molar (M) concentration required to produce maximum relaxation. The method used in that of Castillo and de Beer, J. Pharmac. Expt. Therap. 90, 104, 1947.

[3] = system: antigen-induced bronchconstriction; assay: AA: antiallergy (anti-anaphylactic) activity against antigen-induced bronchoconstriction in sensitized rats; settings: 1h
Excerpt: The animals are subdivided into control and test groups.
Test animals receive a drug either orally, intraperitoneally or intravenously and are challenged with intravenous antigen at fixed time intervals after dosing. Antigen-induced increases in tracheal pressure are monitored and reflect the extent of bronchoconstriction.

in vivo = assay: in vivo
Experimental: (§1) The LD50 was determined in three species, the mouse (male, 18-25 g), the albino rat (female, 150-200 g) and the albino guinea pig (male 180-280 g) by oral administration and in the albino rat by intraperitoneal administration. The animals are fasted overnight prior to testing. Six groups of 10 animals are used; five groups are dosed with the test substance, the sixth group serves as a control and receives the drug vehicle at the highest test concentration. The compounds were administered in a 0.5% gum tragacanth solution in distilled water using a constant logarithmic increment in dose. Dose volume ranged from […].
The animals were housed five per cage (rat and guinea pig) or ten per cage (mouse) with free access to food and water. The number of dead animals was recorded daily for five consecutive days.

LD50, mouse = settings: in vivo, po
Experimental: as §1
The animals were housed five per cage (rat and guinea pig) or ten per cage (mouse) with free access to food and water. The number of dead animals was recorded daily for five consecutive days. The total mortality per group of 10 for each dose level was recorded and LD50 with Confidence Limits calculated according to the method described by Weil, C. S., Biometrics 8(3): 249-263, 1952.

[4] = system: antigen-induced wheal formation; assay: PCA: passive cutaneous anaphylaxis in the rat; format: in vivo; settings: 20 mg/kg po
Experimental: PCA: Antianaphylactic activity against passive cutaneous anaphylaxis in the rat, expressed as % protection against antigen-induced wheal formation.
The method used is that of Ogilvie, B. M., Immunology 12, 113-131 (1967). Reaginic […] antibodies develope in that rat following subcutaneous injection of Nippostrongylus brasiliensis larvae. Antisera, collected 28 days later are injected subcutaneously into new rats.

[5] = system: histamine-induced bronchoconstriction; assay: CP: cardiopulmonary activity against histamine-induced bronchoconstriction in the dog; format: in vivo; settings: histamine administration; vs theophylline
Excerpt: Int. Pharmacodyn. Therap. […] Pretreatment with bronchodilator drugs aims to block the bronchospastic response to histamine. Each dog serves as its own control.

Compound: CC(C)Cn1c(=O)n(C)c(=O)c2[nH]cnc21 [Compound 4258]
- BD, % protection ([1]; 15 mpK po, 30'): 45%
- BD, % protection ([1]; 15 mpK po, 2h): 75%
- BD, % protection ([1]; 15 mpK po, 4h): 39%
- potency, in words [1]: equal potency
- lethal (animals) ([1]; 25 mpK po): 2/4
- dose showing lethal effects [1]: 25 mpK
- EC (maximum relaxation) [2]: 0.001 M
- AA, toxicity noted in place of % protection ([3]; 2.0 mpK ip): tox

Compound: CCC(C)Cn1c(=O)n(C)c(=O)c2[nH]cnc21 (stereo not shown) [Compound 4280]
- BD, % protection ([1]; 20 mpK po, 30'): 86%
- BD, % protection ([1]; 20 mpK po, 1h): 86%
- BD, % protection ([1]; 20 mpK po, 2h): 80%
- BD, % protection ([1]; 20 mpK po, 4h): 13%
- potency, in words [1]: equal potency
- lethal (animals) ([1]; 80 mpK po): 3/8
- dose showing lethal effects [1]: 80 mpK
- EC (maximum relaxation) [2]: 0.001 M
- AA, % protection ([3]; 15 mpK ip): 56%

Compound: Cc1nc2c([nH]1)c(=O)n(C)c(=O)n2C [Compound 4296]
- BD, % protection ([1]; 100 mpK po, 8h): 23%
- BD, % protection ([1]; 150 mpK po, 30'): 68%
- BD, % protection ([1]; 150 mpK po, 8h): 85%
- EC (maximum relaxation) [2]: 0.0714 M

Compound: CCCC(C)Cn1c(=O)n(C)c(=O)c2[nH]c(C)nc21 (stereo not shown) [Compound 4373, 1,8-dimethyl-3-(2-methyl-1-pentyl)xanthine]
- BD, % protection ([1]; 40 mpK po, 30'): 71%
- BD, % protection ([1]; 40 mpK po, 4h): 87%
- BD, % protection ([1]; 40 mpK po, 6h): 96%
- BD, % protection ([1]; 80 mpK po, 30'): 81%
- BD, % protection ([1]; 80 mpK po, 4h): 100%
- EC (maximum relaxation) [2]: 0.05 M
- AA, % protection ([3]; 20 mpK ip): 54%

Compound: CCC(C)Cn1c(=O)n(C)c(=O)c2[nH]c(C)nc21 (stereo not shown) [Compound 4383, 1,8-dimethyl-3-(2-methyl-1-butyl) xanthine]
- BD, % protection ([1]; 10 mpK po, 30'): 35%
- bronchodilation potency in the BD (guinea pig) assay, in words ([1]; 10 mpK po, 4383 vs 4388): about the same bronchodilation potency as 4388
- BD, % protection ([1]; 10 mpK po, 2h): 63%
- BD, % protection ([1]; 10 mpK po, 6h): 66%
- toxic effects in the BD (guinea pig) assay, in words ([1]; 20 mpK po): no toxic effects
- BD, % protection ([1]; 20 mpK po, 1h): 92%
- BD, % protection ([1]; 20 mpK po, 4h): 100%
- BD, % protection ([1]; 20 mpK po, 6h): 97%
- EC (maximum relaxation) [2]: 0.001 M
- LD50 at 120 h (in vivo; ip, rat): 24.6 mg/kg
- LD50 at 120 h (in vivo; po, guinea pig): 21.7 mg/kg
- LD50 at 120 h (in vivo; po, rat): 88.7 mg/kg
- LD50 at 120 h (LD50, mouse): 66.6 mg/kg
- Wheal Diameter, % Δ [4]: 50%
- Wheal Intensity, % Δ [4]: 48%
- Wheal Diameter: Mean ± S.E.M., Response ([4]; control 1.50 ± 0.16): 0.74 ± 0.16 cm
- Wheal Intensity: Mean ± S.E.M., Response ([4]; control 2.17 ± 0.21): 1.13
- bronchodilation in the dog, in words [5]: significantly reduces the decrease in pulmonary compliance and increase in pulmonary resistance due to histamine administration
- AA, % protection ([3]; 2.5 mpK po): 58%
- AA, % protection ([3]; 4 mpK ip): 57%

Compound: Cc1nc2c([nH]1)c(=O)n(C)c(=O)n2CC(C)C [Compound 4388, 1,8-dimethyl-3-isobutylxanthine]
- BD, % protection ([1]; 10 mpK po, 1h): 76%
- BD, % protection ([1]; 10 mpK po, 4h): 73%
- BD, % protection ([1]; 10 mpK po, 6h): 80%
- toxic effects in the BD (guinea pig) assay, in words ([1]; 20 mpK po): pronounced toxicity and was even lethal to one animal
- bronchodilator potency, in words ([1]; general statement): great potency and is long-acting
- lethal (animals) ([1]; 20 mpK po): 1/4
- EC (maximum relaxation) [2]: 0.001 M
- AA, % protection ([3]; 2.5 mpK po): 50%
- AA, % protection ([3]; 75 mpK ip): 70%

Compound: Cn1c(=O)c2[nH]cnc2n(C)c1=O [Theophylline, 1,3-dimethylxanthine]
- EC (maximum relaxation) [2]: 0.1 M
